Assay results: patent US4957927A, “(Diarylmethoxy alkyl)-1-pyrrolidines and piperidines having cardiovascular activity” (Lipha, Lyonnaise Industrielle Pharmaceutique, priority 1988, dated 1990)
Counter-ions that a name gives are not always drawn.

Columns and labels:
[1] = system: isolated depolarized artery of the rabbit's ear; test: decrease in perfusion pressure (calcium-inhibitive effect) on the isolated depolarized artery of the rabbit's ear; settings: Table 1; single dose of 10 μg injected into the perfusion system; hyperpotassic depolarizing solution; average of at least three artery fragments; measured at peak of action
Procedure: The calcium-inhibitive effect was researched in vitro using the method described by J. M. Van Neuten (Eur. J. Pharmacol., 1969, 6, 286) on the isolated depolarized artery of the rabbit's ear:
A fragment of the central artery of the ear was cannulated and suspended in 100 ml of a Tyrode solution [NaCl: 136.90 mmole/l; KCl: 2.68 mmole/l; CaCl2 : 3.60 mmole/l; MgCl2 : 1.04 mmole/l; NaH2 PO4 : 0.42 mmole/l; glucose: 5.55 mmole/l, NaHCO3 : 11.90 mmole/l ]. The fragment was oxygenated (O2 : 95%; CO2 : 5%) and perfused with a constant 2-ml/minute flow of Tyrode at 37° C. Pressure changes in the perfusion circuit were recorded continuously using a pressure sensor. After an equilibration period, the Tyrode was replaced with a hyperpotassic depolarizing solution [NaCl: 39.33 mmole/l; KCl: 99.83 mmole/l; CaCl2 : 3.60 mmole/l; MgCl2 : 1.04 mmole/l; NaH2 PO4 : 0.42 mmole/l; glucose: 5.55 mmole/l; NaHCO3 : 11.90 mmole/l ], which, because of intracellular calcium penetration, caused significant and durable vasoconstriction, antagonized by a calcium inhibitor. The products according to the invention were tested in a single dose of 10 μg administered by injection into the perfusion system, at a rate of 0.1 ml for 10 seconds. […] The effects of the products according to the invention on vasoconstriction induced by the hyperpotassic solution were monitored for several hours. The intensity was measured at the peak of their action.
Each product was tested on at least three artery fragments. Table I includes the average decreases in perfusion pressure observed for a few products according to the invention.

[2] = acute oral toxicity (lethal dose 50) in rats; settings: rat, in vivo
Excerpt: Thus, the compound in example 10 has a lethal dose 50 in rats greater than 1 g/kg when administered orally.

[3] = biological target: calmodulin (Bos taurus, UniProt P62157); test: anti-calmodulin activity (calmodulin activation of Type I cardiac phosphodiesterase); format: biochemical
Procedure: The principle of the method used is the activating effect calmodulin has on the basic enzyme activity of Type I cardiac phosphodiesterase (H. C. Ho et al., Biochim. Biophys. Acta 1976, 429, 461). Enzyme activity is measured using the W. J. Thomson and H. M. Appleman technique (Biochemistry, 1971, 10, 311).

SMILES | % drop in perfusion pressure ± standard error [1] | LD50 [2] | IC50 [3]
COc1cccc(C2CCN(CCOC(c3ccccc3)c3ccccc3)C2)c1.O=C(O)C(=O)O (stereo not shown) [Example 1, 1-[2-(diphenylmethoxy)ethyl]-3-(3-methoxyphenyl)pyrrolidine oxalate] | 56 ± 6% | – | –
COc1ccc(C2CCN(CCOC(c3ccccc3)c3ccccc3)C2)cc1OC (stereo not shown) [Example 4, 3-(3,4dimethoxyphenyl)-1-[2-diphenylmethoxy)ethyl]pyrrolidine oxalate] | 54 ± 5% | – | –
COc1cccc(C2CCN(CCOC(c3ccc(F)cc3)c3ccc(F)cc3)C2)c1 (stereo not shown) [Example 10, 1-[2-[bis(4-fluorophenyl)methoxy]ethyl]-3-(3-methoxyphenyl)pyrrolidine] | 59 ± 4% | > 1000 mg/kg | 83 µM
COc1cccc(C2CCCN2CCOC(c2ccccc2)c2ccccc2)c1 (stereo not shown) [Example 11, 1-[2-(diphenylmethoxy)ethyl]-2-(3-methoxyphenyl)pyrrolidine] | 56 ± 5% | – | –
COc1ccccc1C1CCN(CCOC(c2ccccc2)c2ccccc2)C1 (stereo not shown) [Example 13, 1-[2-diphenylmethoxy)ethyl]-3-(2-methoxyphenyl) pyrrolidine maleate] | 58 ± 5% | – | –
CC(C)Oc1cccc(C2CCN(CCOC(c3ccc(F)cc3)c3ccc(F)cc3)C2)c1 (stereo not shown) [Example 14, 1-[2-[bis(4-fluorophenyl)methoxy]ethyl]-3-(3-isopropoxyphenyl)pyrrolidine] | 54 ± 5% | – | –
COc1cc(OC)cc(C2CCN(CCOC(c3ccc(F)cc3)c3ccc(F)cc3)C2)c1 (stereo not shown) [Example 15, 1-[2-[bis(4-fluorophenyl)methoxy]ethyl]-3-(3,5-dimethoxyphenyl)pyrrolidine fumarate] | 52 ± 5% | – | –
Fc1ccc(C(c2ccc(F)cc2)N2CCN(C/C=C/c3ccccc3)CC2)cc1 [flunarizine, reference compound] | 41 ± 4% | – | –
